Results as given in the NIST ThermoML archive (doi:10.1021/je030101n).

Experiment: xn = mol fraction of the nth substance listed
Conditions: 101.3 kPa, Liquid; for viscosity: Capillary tube (Ostwald / Ubbelohde) method; for mass density: Pycnometric method

N#Cc1ccccc1 [benzonitrile] + CN(C)C=O
Conditions	mass density, 298.15 K [kg/m3]	mass density, 303.15 K [kg/m3]	mass density, 308.15 K [kg/m3]	mass density, 313.15 K [kg/m3]	viscosity, 298.15 K [mPa·s]	viscosity, 303.15 K [mPa·s]	viscosity, 308.15 K [mPa·s]	viscosity, 313.15 K [mPa·s]
x2 = 0	1000.9	996.4	991.9	987.2	1.171	1.126	1.068	1.001
x2 = 0.1335	995.4	990.9	986.4	981.7	1.17	1.124	1.064	0.99
x2 = 0.1981	992.7	988.2	983.7	979	1.169	1.119	1.056	0.985
x2 = 0.3191	987.4	982.9	978.4	973.8	1.152	1.097	1.033	0.963
x2 = 0.3873	984.3	979.8	975.3	970.6	1.134	1.078	1.015	0.948
x2 = 0.4907	979	974.5	970	965.3	1.099	1.042	0.98	0.918
x2 = 0.6061	972.2	967.7	963.2	958.5	1.049	0.992	0.932	0.875
x2 = 0.7176	965.2	960.6	956	951.2	0.992	0.936	0.879	0.825
x2 = 0.7997	959.6	955	950.4	945.6	0.943	0.889	0.834	0.781
x2 = 0.9209	950.6	946	941.4	936.5	0.862	0.811	0.761	0.715
